Columns and labels:
SK-MEL-3 cells = assay: Assay 1 cell proliferation measurement (CTG, 72 h), SK-MEL-3; format: cell-based, human; settings: Homo sapiens, SK-MEL3; Assay 1, 72 h, Cell Titer Glo; read-out: SK-MEL-3 IC50 [nM] (melanoma)
How it was run: (§1)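 CTG luminescence readout after 72 h compound exposure at 37 °C; 10-point 2.5-fold dilutions from 100 nM max final; DMSO 0.3% vehicle. IC50 from 4-parameter fit, normalised to 0 h plate (max inhibition) and DMSO (min inhibition).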

human full length PDE3A = human full length PDE3A (Homo sapiens (Human), UniProt Q14432); assay: Assay 4 PDE3A enzyme inhibition (3H-cAMP SPA); format: biochemical; settings: Sf9 cell extract
human full length PDE3A, sequence (Q14432 whole entry): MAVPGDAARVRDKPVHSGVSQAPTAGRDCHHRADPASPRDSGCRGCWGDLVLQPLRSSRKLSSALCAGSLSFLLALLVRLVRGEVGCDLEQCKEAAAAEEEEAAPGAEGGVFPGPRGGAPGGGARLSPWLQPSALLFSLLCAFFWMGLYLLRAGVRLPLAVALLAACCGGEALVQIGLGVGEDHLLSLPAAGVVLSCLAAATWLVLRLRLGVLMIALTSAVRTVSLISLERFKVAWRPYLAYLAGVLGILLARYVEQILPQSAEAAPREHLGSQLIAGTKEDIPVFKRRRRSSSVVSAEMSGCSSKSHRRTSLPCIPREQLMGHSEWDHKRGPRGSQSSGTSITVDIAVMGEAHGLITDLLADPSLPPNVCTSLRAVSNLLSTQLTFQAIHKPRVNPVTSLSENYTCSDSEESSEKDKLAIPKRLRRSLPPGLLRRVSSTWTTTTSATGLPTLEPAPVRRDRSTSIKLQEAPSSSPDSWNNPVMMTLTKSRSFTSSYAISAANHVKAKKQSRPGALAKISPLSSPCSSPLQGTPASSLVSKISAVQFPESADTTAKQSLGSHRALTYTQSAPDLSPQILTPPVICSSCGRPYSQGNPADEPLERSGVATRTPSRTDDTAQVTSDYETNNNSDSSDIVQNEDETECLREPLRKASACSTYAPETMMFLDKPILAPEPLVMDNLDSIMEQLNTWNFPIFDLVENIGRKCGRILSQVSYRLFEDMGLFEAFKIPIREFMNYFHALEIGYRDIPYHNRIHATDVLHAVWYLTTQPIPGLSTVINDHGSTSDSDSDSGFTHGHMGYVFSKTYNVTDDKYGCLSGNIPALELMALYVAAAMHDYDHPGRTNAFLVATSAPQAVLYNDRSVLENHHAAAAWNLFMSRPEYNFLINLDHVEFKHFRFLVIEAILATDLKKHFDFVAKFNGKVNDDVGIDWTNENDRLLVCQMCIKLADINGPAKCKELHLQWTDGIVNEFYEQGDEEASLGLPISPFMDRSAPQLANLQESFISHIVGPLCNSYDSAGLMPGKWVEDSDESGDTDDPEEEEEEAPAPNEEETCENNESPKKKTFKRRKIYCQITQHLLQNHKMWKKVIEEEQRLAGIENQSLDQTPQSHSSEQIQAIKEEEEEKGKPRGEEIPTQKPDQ
How it was run: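 In this SPA format, the 60-min room-temperature reaction used 0.025 μCi [8-3H]cAMP and diluted full-length PDE3A from Sf9 cells. Percentage activity was plotted against log compound concentration to derive IC50.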

HeLa cells = assay: Assay 1 cell proliferation measurement (CTG, 72 h), HeLa; format: cell-based, human; settings: Homo sapiens, HeLa; Assay 1, 72 h, Cell Titer Glo; read-out: HeLa IC50 [nM] (Cervical cancer)
How it was run: as §1

human full length PDE3B = human full length PDE3B (Homo sapiens (Human), UniProt Q13370); assay: Assay 5 PDE3B enzyme inhibition (3H-cAMP SPA); format: biochemical; settings: Sf9 cell extract
human full length PDE3B, sequence (Q13370 whole entry): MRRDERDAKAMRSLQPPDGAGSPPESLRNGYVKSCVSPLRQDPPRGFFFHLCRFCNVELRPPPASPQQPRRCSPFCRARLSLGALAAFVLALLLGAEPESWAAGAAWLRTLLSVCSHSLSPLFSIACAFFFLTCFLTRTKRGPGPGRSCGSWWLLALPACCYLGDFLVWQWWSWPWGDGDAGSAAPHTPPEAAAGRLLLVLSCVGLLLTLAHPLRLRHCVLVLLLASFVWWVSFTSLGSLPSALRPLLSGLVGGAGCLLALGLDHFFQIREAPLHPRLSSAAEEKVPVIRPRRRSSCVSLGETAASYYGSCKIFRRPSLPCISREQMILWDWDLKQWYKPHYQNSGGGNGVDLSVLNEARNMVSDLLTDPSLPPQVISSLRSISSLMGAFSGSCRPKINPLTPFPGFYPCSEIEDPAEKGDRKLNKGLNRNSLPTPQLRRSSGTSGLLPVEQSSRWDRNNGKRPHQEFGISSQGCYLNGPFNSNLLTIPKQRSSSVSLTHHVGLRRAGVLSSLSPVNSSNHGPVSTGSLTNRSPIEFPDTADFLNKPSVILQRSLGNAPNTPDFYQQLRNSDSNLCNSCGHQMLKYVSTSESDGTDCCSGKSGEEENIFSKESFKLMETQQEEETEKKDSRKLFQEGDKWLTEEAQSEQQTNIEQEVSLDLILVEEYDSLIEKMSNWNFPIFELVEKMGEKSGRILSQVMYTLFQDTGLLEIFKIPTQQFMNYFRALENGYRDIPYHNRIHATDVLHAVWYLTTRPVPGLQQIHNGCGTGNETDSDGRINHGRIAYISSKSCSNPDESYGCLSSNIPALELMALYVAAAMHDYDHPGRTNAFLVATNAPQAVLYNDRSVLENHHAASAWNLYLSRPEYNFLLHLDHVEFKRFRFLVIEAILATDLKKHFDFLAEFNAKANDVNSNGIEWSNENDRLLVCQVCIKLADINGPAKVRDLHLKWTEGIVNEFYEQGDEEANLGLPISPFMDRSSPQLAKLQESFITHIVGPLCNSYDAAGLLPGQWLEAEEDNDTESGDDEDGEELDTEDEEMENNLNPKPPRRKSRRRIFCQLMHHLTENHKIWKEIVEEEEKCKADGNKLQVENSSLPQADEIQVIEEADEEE
How it was run: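 Hydrolysis of tritiated cAMP by Sf9-expressed full-length human PDE3B proceeded 60 min at room temperature in Tris buffer pH 7.5 containing Mg2+, EDTA and BSA, with enzyme dilution keeping substrate consumption below 70%. IC50 derived from percent activity versus log compound concentration.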

IGR37 cells = assay: Assay 1 cell proliferation measurement (CTG, 72 h), IGR37; format: cell-based; settings: Homo sapiens, IGR-37, Cell Titer Glo, read-out: IGR37 IC50 [nM] (melanoma)
[1] = Assay 6 in vitro metabolic stability in cryopreserved human hepatocytes (CL, Fmax); format: in vitro ADME; settings: 1 μM test compound; for Clblood: hepatic in vivo blood clearance calculated (well-stirred) from half-life in cryopreserved human hepatocytes; for Fmax: maximal oral bioavailability calculated from half-life in cryopreserved human hepatocytes
Experimental: Assay 6 Method for Human Cryo Hepatocytes:
Investigation of In Vitro Metabolic Stability in Cryopreserved Human Hepatocytes (Including Calculation of Hepatic In Vivo Blood Clearance (CL) and Maximal Oral Bioavailability (Fmax))
Cryopreserved Hepatocytes (e.g. purchased from Celsis InVitroTechnologies) were briefly thawed, washed with 45 mL pre-warmed in in vitro GRO HT medium and centrifuged for 5 min at 50×g. The cell pellet was resuspended in 5 ml of Krebs-Henseleit […] (KHB). Cell viability was determined by trypan blue exclusion.
For the metabolic stability assay liver cells were distributed in WME containing 5% FCS to glass vials at a density of 1.0×10^6 vital cells/ml. The test compound was added to a final concentration of 1 μM. During incubation, the hepatocyte suspensions were continuously shaken at 580 rpm and aliquots were taken at 2, 8, 16, 30, 45 and 90 min, to which equal volumes of cold methanol were immediately added. Samples were frozen at −20° C. over night, after subsequently centrifuged for 15 minutes at 3000 rpm and the supernatant was analyzed with an Agilent 1290 HPLC-system with LCMS/MS detection.
The half-life of a test compound was determined from the concentration-time plot. From the half-life the intrinsic clearances were calculated. Together with the additional parameters liver blood flow, amount of liver cells in vivo and in vitro. The hepatic in vivo blood clearance (CL) and the maximal oral bioavailability (Fmax) was calculated.

CC1OC(=O)NN=C1c1ccc(N2CCOCC2)c(C(F)(F)F)c1 (racemic) [Example 126, (rac)-6-Methyl-5-(4-morpholino-3-(trifluoromethyl)phenyl)-3,6-dihydro-2H-1,3,4-oxadiazin-2-one]
IC50 (SK-MEL-3 cells): 1 nM
IC50 (human full length PDE3A): 12 nM
IC50 (HeLa cells): 1 nM
IC50 (human full length PDE3B): 8 nM
IC50 (IGR37 cells): 2 nM

CC1OC(=O)NN=C1c1ccc(-c2cnn(C(F)F)c2)c(C(F)(F)F)c1 (racemic) [Example 191, (rac)-5-{4-[1-(Difluoromethyl)-1H-pyrazol-4-yl]-3-(trifluoromethyl)phenyl}-6-methyl-3,6-dihydro-2H-1,3,4-oxadiazin-2-one]
IC50 (SK-MEL-3 cells): 1 nM
IC50 (human full length PDE3A): 48 nM
IC50 (HeLa cells): 0.4 nM
IC50 (human full length PDE3B): 57 nM
IC50 (IGR37 cells): 1 nM

CC1OC(=O)NN=C1c1ccc(-c2ccc(F)cc2)c(C(F)(F)F)c1 (racemic) [Example 192, (rac)-5-[4′-Fluoro-2-(trifluoromethyl)[1,1′-biphenyl]-4-yl]-6-methyl-3,6-dihydro-2H-1,3,4-oxadiazin-2-one]
IC50 (SK-MEL-3 cells): 6 nM
IC50 (human full length PDE3A): 320 nM
IC50 (HeLa cells): 2 nM
IC50 (human full length PDE3B): 120 nM
IC50 (IGR37 cells): 7 nM

CC(Nc1ccc(C2=NNC(=O)OC2)cc1C(F)(F)F)C1CC1 (racemic) [Example 240, (rac)-5-{4-[(1-cyclopropylethyl)amino]-3-(trifluoromethyl)phenyl}-3,6-dihydro-2H-1,3,4-oxadiazin-2-one]
IC50 (SK-MEL-3 cells): 12 nM
IC50 (human full length PDE3A): 180 nM
IC50 (HeLa cells): 3 nM
IC50 (human full length PDE3B): 260 nM
IC50 (IGR37 cells): 10 nM

C[C@@H]1OC(=O)NN=C1c1ccc(-c2ccncc2)c(C(F)(F)F)c1 [Example 166, (6S)-6-Methyl-5-[4-(pyridin-4-yl)-3-(trifluoromethyl)phenyl]-3,6-dihydro-2H-1,3,4-oxadiazin-2-one]
IC50 (SK-MEL-3 cells): 1 nM
IC50 (human full length PDE3A): 69 nM
IC50 (HeLa cells): 1 nM
IC50 (human full length PDE3B): 42 nM
IC50 (IGR37 cells): 1 nM

C[C@@H]1OC(=O)NN=C1c1ccc(-c2ccc(O)cc2)c(C(F)(F)F)c1 [Example 174, (6S)-5-[4′-Hydroxy-2-(trifluoromethyl)[1,1′-biphenyl]-4-yl]-6-methyl-3,6-dihydro-2H-1,3,4-oxadiazin-2-one]
IC50 (SK-MEL-3 cells): 1 nM
IC50 (human full length PDE3A): 27 nM
IC50 (HeLa cells): 1 nM
IC50 (human full length PDE3B): 16 nM
IC50 (IGR37 cells): 1 nM

C[C@@H]1OC(=O)NN=C1c1ccc(CN2CCOCC2)c(C(F)(F)F)c1 [Example 196, (6S)-6-Methyl-5-{4-[(morpholin-4-yl)methyl]-3-(trifluoromethyl)phenyl}-3,6-dihydro-2H-1,3,4-oxadiazin-2-one]
IC50 (SK-MEL-3 cells): 31 nM
IC50 (human full length PDE3A): 810 nM
IC50 (HeLa cells): 15 nM
IC50 (human full length PDE3B): 790 nM
IC50 (IGR37 cells): 33 nM

CC(C)(C)Nc1ccc(C2=NNC(=O)OC2)cc1C(F)(F)F [Example 224, 5-[4-(tert-Butylamino)-3-(trifluoromethyl)phenyl]-3,6-dihydro-2H-1,3,4-oxadiazin-2-one]
IC50 (SK-MEL-3 cells): 3 nM
IC50 (human full length PDE3A): 165 nM
IC50 (HeLa cells): 2 nM
IC50 (human full length PDE3B): 200 nM
Clblood [1]: 5.83 mL/min/kg
Fmax [1]: 74%

O=C1NN=C(c2ccc(NCc3cnccn3)c(C(F)(F)F)c2)CO1 [Example 226, 5-[4-{[(Pyrazin-2-yl)methyl]amino}-3-(trifluoromethyl)phenyl]-3,6-dihydro-2H-1,3,4-oxadiazin-2-one]
IC50 (SK-MEL-3 cells): 2 nM
IC50 (human full length PDE3A): 128 nM
IC50 (HeLa cells): 1 nM
IC50 (human full length PDE3B): 187 nM
IC50 (IGR37 cells): 2 nM

O=C1NN=C(c2ccc(N3CCC(F)(F)CC3)c(C(F)(F)F)c2)CO1 [Example 232, 5-[4-(4,4-Difluoropiperidin-1-yl)-3-(trifluoromethyl)phenyl]-3,6-dihydro-2H-1,3,4-oxadiazin-2-one]
IC50 (SK-MEL-3 cells): 5 nM
IC50 (HeLa cells): 2 nM
IC50 (IGR37 cells): 4 nM

N#CC1CCN(c2ccc(C3=NNC(=O)OC3)cc2C(F)(F)F)CC1 [Example 239, 1-[4-(2-Oxo-3,6-dihydro-2H-1,3,4-oxadiazin-5-yl)-2-(trifluoromethyl)phenyl]piperidine-4-carbonitrile]
IC50 (SK-MEL-3 cells): 1 nM
IC50 (human full length PDE3A): 27 nM
IC50 (HeLa cells): 0.3 nM
IC50 (human full length PDE3B): 26 nM
IC50 (IGR37 cells): 1 nM

CC1(C#N)CN(c2ccc(C3=NNC(=O)OC3)cc2C(F)(F)F)C1 [Example 251, 3-Methyl-1-[4-(2-oxo-3,6-dihydro-2H-1,3,4-oxadiazin-5-yl)-2-(trifluoromethyl)phenyl]azetidine-3-carbonitrile]
IC50 (SK-MEL-3 cells): 5 nM
IC50 (human full length PDE3A): 61 nM
IC50 (HeLa cells): 2 nM
IC50 (human full length PDE3B): 97 nM
IC50 (IGR37 cells): 4 nM

CCC1(O)CCN(c2ccc(C3=NNC(=O)OC3)cc2C(F)(F)F)CC1 [Example 253, 5-[4-(4-Ethyl-4-hydroxypiperidin-1-yl)-3-(trifluoromethyl)phenyl]-3,6-dihydro-2H-1,3,4-oxadiazin-2-one]
IC50 (SK-MEL-3 cells): 40 nM
IC50 (human full length PDE3A): 190 nM
IC50 (HeLa cells): 1 nM
IC50 (human full length PDE3B): 155 nM
IC50 (IGR37 cells): 5 nM

NC(=O)CNc1ccc(C2=NNC(=O)OC2)cc1C(F)(F)F [Example 256, N^2-[4-(2-Oxo-3,6-dihydro-2H-1,3,4-oxadiazin-5-yl)-2-(trifluoromethyl)phenyl]glycinamide]
IC50 (SK-MEL-3 cells): 63 nM
IC50 (human full length PDE3A): 240 nM
IC50 (HeLa cells): 37 nM
IC50 (human full length PDE3B): 480 nM
Clblood [1]: 1.2 mL/min/kg
Fmax [1]: 95%

CCOCCNc1ccc(C2=NNC(=O)OC2)cc1C(F)(F)F [Example 260, 5-{4-[(2-Ethoxyethyl)amino]-3-(trifluoromethyl)phenyl}-3,6-dihydro-2H-1,3,4-oxadiazin-2-one]
IC50 (SK-MEL-3 cells): 3 nM
IC50 (human full length PDE3A): 48 nM
IC50 (HeLa cells): 1 nM
IC50 (human full length PDE3B): 170 nM
Clblood [1]: 14.3 mL/min/kg
Fmax [1]: 35%

C[C@@H]1OC(=O)NN=C1c1ccc(-n2cnc(C(F)(F)F)c2)c(C(F)(F)F)c1 [Example 266, (6S)-6-Methyl-5-{3-(trifluoromethyl)-4-[4-(trifluoromethyl)-1H-imidazol-1-yl]phenyl}-3,6-dihydro-2H-1,3,4-oxadiazin-2-one]
IC50 (SK-MEL-3 cells): 35 nM
IC50 (human full length PDE3A): > 1000 nM
IC50 (HeLa cells): 19 nM
IC50 (human full length PDE3B): 930 nM
IC50 (IGR37 cells): 65 nM

CC(C)Cc1ccc(C2=NNC(=O)OC2)cc1C(F)(F)F [Example 268, 5-[4-(2-Methylpropyl)-3-(trifluoromethyl)phenyl]-3,6-dihydro-2H-1,3,4-oxadiazin-2-one]
IC50 (SK-MEL-3 cells): 3 nM
IC50 (human full length PDE3A): 138 nM
IC50 (HeLa cells): 1 nM
IC50 (human full length PDE3B): 110 nM
Clblood [1]: 5 mL/min/kg
Fmax [1]: 78%

CC(C)c1ccc(C2=NNC(=O)OC2)cc1C(F)(F)F [Example 270, 5-[4-(Propan-2-yl)-3-(trifluoromethyl)phenyl]-3,6-dihydro-2H-1,3,4-oxadiazin-2-one]
IC50 (SK-MEL-3 cells): 15 nM
IC50 (human full length PDE3A): 55 nM
IC50 (HeLa cells): 9 nM
IC50 (human full length PDE3B): 170 nM
Clblood [1]: <0.17 mL/min/kg
Fmax [1]: 100%

CNc1ccc(C2=NNC(=O)OC2)cc1C(F)(F)F [Example 276, 5-[4-(Methylamino)-3-(trifluoromethyl)phenyl]-3,6-dihydro-2H-1,3,4-oxadiazin-2-one]
IC50 (SK-MEL-3 cells): 49 nM
IC50 (human full length PDE3A): 79 nM
IC50 (HeLa cells): 27 nM
IC50 (human full length PDE3B): 240 nM
IC50 (IGR37 cells): 50 nM

C[C@@H]1OC(=O)NN=C1c1ccc(N2CC(F)(F)C2)c(C(F)(F)F)c1 [Example 279, (6S)-5-[4-(3,3-Difluoroazetidin-1-yl)-3-(trifluoromethyl)phenyl]-6-methyl-3,6-dihydro-2H-1,3,4-oxadiazin-2-one]
IC50 (SK-MEL-3 cells): 2 nM
IC50 (HeLa cells): 1 nM
IC50 (IGR37 cells): 2 nM

C[C@@H]1OC(=O)NN=C1c1ccc(N2CC(C)(O)C2)c(C(F)(F)F)c1 [Example 280, (6S)-5-[4-(3-Hydroxy-3-methylazetidin-1-yl)-3-(trifluoromethyl)phenyl]-6-methyl-3,6-dihydro-2H-1,3,4-oxadiazin-2-one]
IC50 (SK-MEL-3 cells): 0.4 nM
IC50 (HeLa cells): 0.1 nM
IC50 (IGR37 cells): 0.4 nM

From patent US11427553B2, “Dihydrooxadiazinones” (Bayer Aktiengesellschaft, priority 2017, dated 2022)
